Source: patent publication US20190127381A1, “SUBSTITUTED FUSED PYRIMIDINONE COMPOUNDS” (TORRENT PHARMACEUTICALS LIMITED, priority 2016, published 2019)

How the values were obtained:
[1] = target: T1, purified recombinant human PI3K enzyme δ (Homo sapiens, UniProt O00329); assay: Inhibition of PI3-Kinase enzymatic activity (HTRF enzyme assay), δ; assay type: biochemical; settings: 1 μM compound; PI3K δ 50 ng/well; PIP2 10 μM; ATP 200 μM; read-out: Percentage inhibition of PI3K activity, δ
T1 construct: purchased Invitrogen, USA
In short: (§1)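 HTRF assay with compound at 1 μM (1.0% DMSO), recombinant human PI3Kδ (50 ng/well) or γ (100 ng/well) and PIP2 (10 μM), preincubated 15 min at room temperature. ATP (δ 200 μM, γ 50 μM) was then added for 30 min at room temperature. Percent inhibition was derived from the 665/615 nm signal ratio.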

[2] = target: T2, purified recombinant human PI3K enzyme γ (Homo sapiens, UniProt P48736); assay: Inhibition of PI3-Kinase enzymatic activity (HTRF enzyme assay), γ; assay type: biochemical; settings: 1 μM compound; PI3K γ 100 ng/well; PIP2 10 μM; ATP 50 μM; read-out: Percentage inhibition of PI3K activity, γ
T2 construct: purchased Invitrogen, USA
In short: as §1

T2 sequence (P48736 whole entry): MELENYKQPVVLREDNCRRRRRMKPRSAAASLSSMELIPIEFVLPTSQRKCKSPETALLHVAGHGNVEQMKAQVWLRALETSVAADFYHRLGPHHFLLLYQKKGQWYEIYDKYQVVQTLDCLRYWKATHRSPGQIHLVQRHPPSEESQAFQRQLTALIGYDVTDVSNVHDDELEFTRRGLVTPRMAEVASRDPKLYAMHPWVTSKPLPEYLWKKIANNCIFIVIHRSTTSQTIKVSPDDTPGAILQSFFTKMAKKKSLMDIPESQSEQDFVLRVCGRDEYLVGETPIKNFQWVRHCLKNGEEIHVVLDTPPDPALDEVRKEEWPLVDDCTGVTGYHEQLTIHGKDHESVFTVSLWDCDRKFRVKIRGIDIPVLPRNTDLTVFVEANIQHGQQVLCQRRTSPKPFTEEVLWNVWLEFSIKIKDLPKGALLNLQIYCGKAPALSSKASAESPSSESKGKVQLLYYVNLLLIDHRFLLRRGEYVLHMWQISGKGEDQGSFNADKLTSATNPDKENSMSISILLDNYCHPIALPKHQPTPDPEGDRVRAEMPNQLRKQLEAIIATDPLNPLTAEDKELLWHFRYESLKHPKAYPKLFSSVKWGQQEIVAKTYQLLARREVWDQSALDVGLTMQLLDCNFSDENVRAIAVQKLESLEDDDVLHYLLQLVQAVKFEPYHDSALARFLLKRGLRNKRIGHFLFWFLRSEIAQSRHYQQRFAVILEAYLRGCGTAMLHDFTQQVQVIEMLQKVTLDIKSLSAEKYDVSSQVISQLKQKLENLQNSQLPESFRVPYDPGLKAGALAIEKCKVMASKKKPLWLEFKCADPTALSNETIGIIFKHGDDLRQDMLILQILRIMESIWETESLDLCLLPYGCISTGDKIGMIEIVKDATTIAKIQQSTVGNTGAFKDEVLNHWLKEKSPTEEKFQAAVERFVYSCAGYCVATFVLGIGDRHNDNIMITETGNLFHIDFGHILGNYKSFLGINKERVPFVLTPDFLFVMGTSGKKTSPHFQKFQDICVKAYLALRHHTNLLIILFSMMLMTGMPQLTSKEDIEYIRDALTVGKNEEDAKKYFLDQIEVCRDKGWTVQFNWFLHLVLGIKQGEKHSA
T1 sequence (O00329 whole entry): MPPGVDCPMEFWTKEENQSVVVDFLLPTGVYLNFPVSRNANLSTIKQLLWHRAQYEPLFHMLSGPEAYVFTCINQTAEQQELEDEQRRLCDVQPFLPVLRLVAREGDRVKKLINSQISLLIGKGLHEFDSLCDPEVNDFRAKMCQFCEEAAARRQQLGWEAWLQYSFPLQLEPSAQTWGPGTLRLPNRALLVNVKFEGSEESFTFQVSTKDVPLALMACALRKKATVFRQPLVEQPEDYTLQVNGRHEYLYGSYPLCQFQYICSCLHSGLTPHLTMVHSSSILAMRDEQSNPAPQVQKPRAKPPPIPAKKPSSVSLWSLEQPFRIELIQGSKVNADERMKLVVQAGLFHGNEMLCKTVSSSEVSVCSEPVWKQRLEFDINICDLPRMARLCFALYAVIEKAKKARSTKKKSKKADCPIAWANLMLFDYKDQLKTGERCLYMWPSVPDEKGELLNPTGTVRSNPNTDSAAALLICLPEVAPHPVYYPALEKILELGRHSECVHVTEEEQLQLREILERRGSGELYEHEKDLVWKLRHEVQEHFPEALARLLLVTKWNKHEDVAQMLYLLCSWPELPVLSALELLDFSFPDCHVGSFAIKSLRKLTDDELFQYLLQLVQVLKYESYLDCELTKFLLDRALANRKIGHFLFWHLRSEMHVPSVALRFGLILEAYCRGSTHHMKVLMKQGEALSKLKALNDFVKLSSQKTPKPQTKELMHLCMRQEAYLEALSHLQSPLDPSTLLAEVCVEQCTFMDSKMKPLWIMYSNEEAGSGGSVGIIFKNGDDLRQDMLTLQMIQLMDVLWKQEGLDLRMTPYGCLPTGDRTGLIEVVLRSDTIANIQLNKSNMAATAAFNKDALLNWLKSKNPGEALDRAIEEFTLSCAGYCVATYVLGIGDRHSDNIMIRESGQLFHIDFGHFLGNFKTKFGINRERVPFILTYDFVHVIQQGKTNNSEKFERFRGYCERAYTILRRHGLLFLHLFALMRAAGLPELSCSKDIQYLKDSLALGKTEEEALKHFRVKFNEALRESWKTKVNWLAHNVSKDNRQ
T1 sequence (P27986 whole entry partner): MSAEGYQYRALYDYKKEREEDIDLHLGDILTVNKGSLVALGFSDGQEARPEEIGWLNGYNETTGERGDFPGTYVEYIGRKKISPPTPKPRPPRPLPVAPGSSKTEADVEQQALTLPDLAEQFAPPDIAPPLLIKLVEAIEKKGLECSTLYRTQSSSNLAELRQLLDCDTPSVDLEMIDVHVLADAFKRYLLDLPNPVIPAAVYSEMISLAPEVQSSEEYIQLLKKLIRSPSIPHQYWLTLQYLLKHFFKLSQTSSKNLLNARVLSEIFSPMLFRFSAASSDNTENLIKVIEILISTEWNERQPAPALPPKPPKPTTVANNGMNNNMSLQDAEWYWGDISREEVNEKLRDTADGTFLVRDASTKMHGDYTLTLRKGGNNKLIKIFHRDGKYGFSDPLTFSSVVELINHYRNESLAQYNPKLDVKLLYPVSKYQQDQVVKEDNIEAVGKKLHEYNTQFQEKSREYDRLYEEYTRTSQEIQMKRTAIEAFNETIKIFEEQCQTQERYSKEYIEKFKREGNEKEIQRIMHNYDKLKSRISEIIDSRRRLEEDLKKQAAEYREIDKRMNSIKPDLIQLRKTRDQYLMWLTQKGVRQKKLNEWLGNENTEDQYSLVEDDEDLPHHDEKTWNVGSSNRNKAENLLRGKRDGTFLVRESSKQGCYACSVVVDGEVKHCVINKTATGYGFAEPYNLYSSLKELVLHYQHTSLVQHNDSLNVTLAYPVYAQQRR

inhibition at 1 µM [1] | inhibition at 1 µM [2] | Structure (SMILES)
80 to 100% | 80 to 100% | CC1(C)Cc2c(-c3nn(Cc4nc5cccc(C#CCN6CCOCC6)c5c(=O)n4C4(c5ccsc5)CC4)c4ncnc(N)c34)ccc(O)c2O1 [compound 72, 2-{[4-amino-3-(7-hydroxy-2,2-dimethyl-2,3-dihydro-1-benzofuran-4-yl)-1H-pyrazolo[3,4-d]pyrimidin-1-yl]methyl}-5-[3-(morpholin-4-yl)prop-1-yn-1-yl]-3-[1-(thiophen-3-yl)cyclopropyl]quinazolin-4(3H)-one]
80 to 100% | 80 to 100% | Cn1cccc1-c1cccc2nc(Cn3nc(-c4ccc(O)c5c4CC(C)(C)O5)c4c(N)ncnc43)n(C3(c4ccsc4)CC3)c(=O)c12 [compound 75, 2-{[4-amino-3-(7-hydroxy-2,2-dimethyl-2,3-dihydro-1-benzofuran-4-yl)-1H-pyrazolo[3,4-d]pyrimidin-1-yl]methyl}-5-(1-methyl-1H-pyrrol-2-yl)-3-[1-(thiophen-3-yl)cyclopropyl]quinazolin-4(3H)-one]
80 to 100% | 80 to 100% | CC1(C)Cc2c(-c3nn(Cc4nc5cccc(C#CC6CC6)c5c(=O)n4C4(c5ccsc5)CC4)c4ncnc(N)c34)ccc(O)c2O1 [compound 76, 2-{[4-amino-3-(7-hydroxy-2,2-dimethyl-2,3-dihydro-1-benzofuran-4-yl)-1H-pyrazolo[3,4-d]pyrimidin-1-yl]methyl}-5-(cyclopropylethynyl)-3-[1-(thiophen-3-yl)cyclopropyl]quinazolin-4(3H)-one]
80 to 100% | 80 to 100% | Cc1ccc(C)n1-n1c(Cn2nc(-c3ccc(O)c4c3CC(C)(C)O4)c3c(N)ncnc32)nc2cccc(-c3cccn3C)c2c1=O [compound 77, 2-{[4-amino-3-(7-hydroxy-2,2-dimethyl-2,3-dihydro-1-benzofuran-4-yl)-1H-pyrazolo[3,4-d]pyrimidin-1-yl]methyl}-3-(2,5-dimethyl-1H-pyrrol-1-yl)-5-(1-methyl-1H-pyrrol-2-yl)quinazolin-4(3H)-one]
80 to 100% | 60 to 80% | Cc1ccc(C)n1-n1c(Cn2nc(-c3ccc(O)c4c3CC(C)(C)O4)c3c(N)ncnc32)nc2cccc(C#CCN3CCOCC3)c2c1=O [compound 80, 2-{[4-amino-3-(7-hydroxy-2,2-dimethyl-2,3-dihydro-1-benzofuran-4-yl)-1H-pyrazolo[3,4-d]pyrimidin-1-yl]methyl}-3-(2,5-dimethyl-1H-pyrrol-1-yl)-5-[3-(morpholin-4-yl)prop-1-yn-1-yl]quinazolin-4(3H)-one]
80 to 100% | 60 to 80% | COc1ccc(-c2nn(Cc3nc4cccc(C)c4c(=O)n3-n3cccc3)c3ncnc(N)c23)c2c1OC(C)(C)C2 [compound 84, 2-{[4-amino-3-(7-methoxy-2,2-dimethyl-2,3-dihydro-1-benzofuran-4-yl)-1H-pyrazolo[3,4-d]pyrimidin-1-yl]methyl}-5-methyl-3-(1H-pyrrol-1-yl)quinazolin-4(3H)-one]
80 to 100% | 80 to 100% | CCn1cc(-c2cccc3nc(Cn4nc(-c5ccc(O)c6c5CC(C)(C)O6)c5c(N)ncnc54)n(-n4c(C)ccc4C)c(=O)c23)cn1 [compound 85, 2-{[4-amino-3-(7-hydroxy-2,2-dimethyl-2,3-dihydro-1-benzofuran-4-yl)-1H-pyrazolo[3,4-d]pyrimidin-1-yl]methyl}-3-(2,5-dimethyl-1H-pyrrol-1-yl)-5-(1-ethyl-1H-pyrazol-4-yl)quinazolin-4(3H)-one]
80 to 100% | 80 to 100% | Cc1ccc(C)n1-n1c(Cn2nc(-c3ccc(O)c4c3CC(C)(C)O4)c3c(N)ncnc32)nc2ccccc2c1=O [compound 88, 2-{[4-amino-3-(7-hydroxy-2,2-dimethyl-2,3-dihydro-1-benzofuran-4-yl)-1H-pyrazolo[3,4-d]pyrimidin-1-yl]methyl}-3-(2,5-dimethyl-1H-pyrrol-1-yl)quinazolin-4(3H)-one]
80 to 100% | 80 to 100% | CCn1cc(-c2cccc3nc(Cn4nc(-c5ccc(O)c6c5CCC6)c5c(N)ncnc54)n(-n4c(C)ccc4C)c(=O)c23)cn1 [compound 94, 2-{[4-amino-3-(7-hydroxy-2,3-dihydro-1H-inden-4-yl)-1H-pyrazolo[3,4-d]pyrimidin-1-yl]methyl}-3-(2,5-dimethyl-1H-pyrrol-1-yl)-5-(1-ethyl-1H-pyrazol-4-yl)quinazolin-4(3H)-one]

More lines, now with the values behind:

Structure (SMILES) | inhibition at 1 µM [1] | inhibition at 1 µM [2]
Cc1ccc(C)n1-n1c(Cn2nc(-c3ccc(O)c4c3CC(C)(C)O4)c3c(N)ncnc32)nc2cccc(C#CCN3CCNC(=O)C3)c2c1=O [compound 68, 2-{[4-amino-3-(7-hydroxy-2,2-dimethyl-2,3-dihydro-1-benzofuran-4-yl)-1H-pyrazolo[3,4-d]pyrimidin-1-yl]methyl}-3-(2,5-dimethyl-1H-pyrrol-1-yl)-5-[3-(3-oxopiperazin-1-yl)prop-1-yn-1-yl]quinazolin-4(3H)-one] | 80 to 100% | 80 to 100%
Cn1cc(-c2cccc3nc(Cn4nc(-c5ccc(O)c6c5CC(C)(C)O6)c5c(N)ncnc54)n(C4(c5ccsc5)CC4)c(=O)c23)cn1 [compound 69, 2-{[4-amino-3-(7-hydroxy-2,2-dimethyl-2,3-dihydro-1-benzofuran-4-yl)-1H-pyrazolo[3,4-d]pyrimidin-1-yl]methyl}-5-(1-methyl-1H-pyrazol-4-yl)-3-[1-(thiophen-3-yl)cyclopropyl]quinazolin-4(3H)-one] | 80 to 100% | 60 to 80%
Cn1cccc1-c1cccc2nc(Cn3nc(-c4ccc(O)c5c4CC(C)(C)O5)c4c(N)ncnc43)n(-n3cccc3)c(=O)c12 [compound 71, 2-{[4-amino-3-(7-hydroxy-2,2-dimethyl-2,3-dihydro-1-benzofuran-4-yl)-1H-pyrazolo[3,4-d]pyrimidin-1-yl]methyl}-5-(1-methyl-1H-pyrrol-2-yl)-3-(1H-pyrrol-1-yl)quinazolin-4(3H)-one] | 80 to 100% | 80 to 100%
COc1ccc(-c2nn(Cc3nc4cccc(C)c4c(=O)n3-n3c(C)ccc3C)c3ncnc(N)c23)c2c1OC(C)(C)C2 [compound 78, 2-{[4-amino-3-(7-methoxy-2,2-dimethyl-2,3-dihydro-1-benzofuran-4-yl)-1H-pyrazolo[3,4-d]pyrimidin-1-yl]methyl}-3-(2,5-dimethyl-1H-pyrrol-1-yl)-5-methylquinazolin-4(3H)-one] | 80 to 100% | 60 to 80%
CCCn1cc(-c2cccc3nc(Cn4nc(-c5ccc(O)c6c5CC(C)(C)O6)c5c(N)ncnc54)n(-n4c(C)ccc4C)c(=O)c23)cn1 [compound 89, 2-{[4-amino-3-(7-hydroxy-2,2-dimethyl-2,3-dihydro-1-benzofuran-4-yl)-1H-pyrazolo[3,4-d]pyrimidin-1-yl]methyl}-3-(2,5-dimethyl-1H-pyrrol-1-yl)-5-(1-propyl-1H-pyrazol-4-yl)quinazolin-4(3H)-one] | 80 to 100% | 80 to 100%
Cc1ccc(C)n1-n1c(Cn2nc(-c3ccc(O)c4c3CCC4)c3c(N)ncnc32)nc2cccc(-c3cnn(C)c3)c2c1=O [compound 93, 2-{[4-amino-3-(7-hydroxy-2,3-dihydro-1H-inden-4-yl)-1H-pyrazolo[3,4-d]pyrimidin-1-yl]methyl}-3-(2,5-dimethyl-1H-pyrrol-1-yl)-5-(1-methyl-1H-pyrazol-4-yl)quinazolin-4(3H)-one] | 80 to 100% | 80 to 100%
Cc1cccc2nc([C@H](C)n3nc(-c4ccc(O)c5c4CC(C)(C)O5)c4c(N)ncnc43)n(-n3c(C)ccc3C)c(=O)c12 [compound 95, 2-{(1S)-1-[4-amino-3-(7-hydroxy-2,2-dimethyl-2,3-dihydro-1-benzofuran-4-yl)-1H-pyrazolo[3,4-d]pyrimidin-1-yl]ethyl}-3-(2,5-dimethyl-1H-pyrrol-1-yl)-5-methylquinazolin-4(3H)-one] | 80 to 100% | 80 to 100%
CCn1cc(-c2cccc3nc([C@H](C)n4nc(-c5ccc(O)c6c5CC(C)(C)O6)c5c(N)ncnc54)n(-n4cccc4)c(=O)c23)cn1 [compound 99, 2-{(1S)-1-[4-amino-3-(7-hydroxy-2,2-dimethyl-2,3-dihydro-1-benzofuran-4-yl)-1H-pyrazolo[3,4-d]pyrimidin-1-yl]ethyl}-5-(1-ethyl-1H-pyrazol-4-yl)-3-(1H-pyrrol-1-yl)quinazolin-4(3H)-one] | 80 to 100% | 40 to 60%
